# Measurements: US20030195168A1, “Therapeutic agents - III” (priority 2000, published 2003)
# Legend:
# HIV-strain pNL4-3 = assay: HIV-1 replication in acutely infected PBMC (CA-p24 ELISA); assay type: cell-based; details: 2.8 μM
# Protocol: Experiments were conducted to assess the effect of the compounds of the instant invention on HIV-1 replication in acutely infected T cells. Peripheral blood mononuclear cells (PBMC) were obtained from non-HIV-1, non-HIV-2, non-Hepatitis B/C infected donors, stimulated with phytohemagglutinin-M and grown in culture media supplemented with 10 U/mL interleukin-2. The activated PBMC were infected with […] (Low Titre) and 100 ng (High Titre) of CA-p24 equivalents of the HIV-strain pNL4-3. Cells were infected for two hr after which, the virus was removed and the cells were washed with culture media. Equivalent numbers of cells were seeded into 24 well plates and compounds were added to the cultured cells that included: TPA at 8 riM and 80 nM, Ingenol at 280 nM, PEP003 at 500 nM, 50 nM and 5 nM, or PEP004 at dilutions of 1×10^4 and 1×10^5 from the stock (final concentrations). In addition, uninfected activated PBMC were grown in the presence of TPA (80 nM), Ingenol (280 nM), PEP003 (500 nM) and PEP004 (1×10^4 dilution). Other cultures were neither infected nor treated with any compound, or infected but not treated with any compound. Supernatant was removed from each culture at day 0, 3, 7, and 10. The amount of HIV-1 CA-p24 was determined using a commercially available ELISA assay. Three independent experiments were performed.
# [1] = test system: peripheral blood mononuclear cells (PBMCs); assay: Phagocytosis with fluorescent beads; assay type: cell-based; details: whole heparinized blood, 30 min at 37° C.
# Protocol: Phagocytosis by peripheral blood mononuclear cells (PBMCs) was assayed (Steinkamp et al., 1982) using 1 μm Fluoresbrite™ yellow-green fluorescent latex spheres (Polysciences, Inc., Warrington, Pa.). A sample of whole, heparinized blood was treated with drug and 5×10E7 fluorescent latex beads in 10 μL of PBS added per mL of suspension. Cells were incubated and maintained in suspension for 30 min by means of a shaker platform at 37° C. The stirnulated and non-stimulated samples were then lysed to isolate PBMCs. The PBMCs were run on the flow cytometer measuring FITC (excitation at 488 nm, emission at 525±20 nm), gated for fluorescence (phagocytosed spheres) and light scatter (cell size).
# PKCβ = molecular target: T1, PKCβ (Homo sapiens, UniProt P05771); assay: EGFP-PKC isoform translocation in HeLa cells; assay type: cell-based; details: for number of PKCβ transfected cells with Golgi-like fluorescence: one hour treatment; for translocation of PKCβ to the plasma membrane: one hour, TPA 100 ng/mL, bryostatin-1 5 pg/mL, PEP003 2.25 μg/mL (5 μM), PEP005 670 μg/mL (1.5 μM)
# T1 construct: host or cells: HeLa cells
# T1 sequence (P05771 whole entry, species assumed, canonical isoform): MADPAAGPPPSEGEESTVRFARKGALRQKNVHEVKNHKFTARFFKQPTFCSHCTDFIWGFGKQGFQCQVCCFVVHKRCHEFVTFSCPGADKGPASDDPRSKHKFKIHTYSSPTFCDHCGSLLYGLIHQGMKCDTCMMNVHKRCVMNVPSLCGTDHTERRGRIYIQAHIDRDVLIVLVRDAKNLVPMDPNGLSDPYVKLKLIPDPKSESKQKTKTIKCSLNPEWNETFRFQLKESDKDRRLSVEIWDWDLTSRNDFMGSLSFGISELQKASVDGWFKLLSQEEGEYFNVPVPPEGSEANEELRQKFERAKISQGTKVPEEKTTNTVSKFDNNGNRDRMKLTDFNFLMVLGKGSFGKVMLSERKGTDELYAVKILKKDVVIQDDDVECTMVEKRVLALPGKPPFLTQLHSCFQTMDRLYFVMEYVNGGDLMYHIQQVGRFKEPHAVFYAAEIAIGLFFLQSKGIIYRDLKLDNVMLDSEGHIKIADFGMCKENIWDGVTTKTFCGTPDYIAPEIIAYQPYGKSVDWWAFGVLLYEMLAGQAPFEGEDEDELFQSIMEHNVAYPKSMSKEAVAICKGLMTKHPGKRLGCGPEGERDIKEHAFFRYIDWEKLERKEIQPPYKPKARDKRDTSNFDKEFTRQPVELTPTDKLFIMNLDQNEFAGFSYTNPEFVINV
# Protocol: (§1) Five EGFP-PKC isoforms (Clontech) were available for this experiment, enabling the screening of the three predominant PKC families (i.e. classical, novel and atypical PKCs). The members of the various PKC families are α, β, and γ (classical), θ (novel) and ζ (atypical).
# (§2) HeLa cells were plated out in a 24-well plate containing coverslips and transfected with PKC isoforms fused to EGFP, using a commercially available effectine-transfection kit (QIAGEN, Pty. Ltd.). Cells were exposed to the transfection reagents for 16-24 hr. Subsequently, transfected cells were treated for one hour with TPA (100 ng/mL), bryostatin-1 (5 pg/mL), PEP003 (2.25 μg/mL; 5 μM) or PEP005 ([…]) 1.5 μM). Following treatment, cells were fixed on coverslips and mounted on glass slides. The slides were subsequently examined visually by fluorescence microscopy, photographed, and over 150 cells were counted/treatment/PKC isoform. Counted cells were classified according to the localisation of the PKC-EGFP fluorescence as either cytoplasmic or plasma membrane using ImagePro™ 4.1 (FIG. 5). […] The number of these cells was also counted. Results are presented as an average and standard deviation of percentages of cells (Table 1).
# PKCζ = molecular target: T2, PKCζ (Homo sapiens, UniProt Q05513); assay: EGFP-PKC isoform translocation in HeLa cells; assay type: cell-based; details: one hour, TPA 100 ng/mL, bryostatin-1 5 pg/mL, PEP003 2.25 μg/mL (5 μM), PEP005 670 μg/mL (1.5 μM)
# T2 construct: host or cells: HeLa cells
# T2 sequence (Q05513 1-592): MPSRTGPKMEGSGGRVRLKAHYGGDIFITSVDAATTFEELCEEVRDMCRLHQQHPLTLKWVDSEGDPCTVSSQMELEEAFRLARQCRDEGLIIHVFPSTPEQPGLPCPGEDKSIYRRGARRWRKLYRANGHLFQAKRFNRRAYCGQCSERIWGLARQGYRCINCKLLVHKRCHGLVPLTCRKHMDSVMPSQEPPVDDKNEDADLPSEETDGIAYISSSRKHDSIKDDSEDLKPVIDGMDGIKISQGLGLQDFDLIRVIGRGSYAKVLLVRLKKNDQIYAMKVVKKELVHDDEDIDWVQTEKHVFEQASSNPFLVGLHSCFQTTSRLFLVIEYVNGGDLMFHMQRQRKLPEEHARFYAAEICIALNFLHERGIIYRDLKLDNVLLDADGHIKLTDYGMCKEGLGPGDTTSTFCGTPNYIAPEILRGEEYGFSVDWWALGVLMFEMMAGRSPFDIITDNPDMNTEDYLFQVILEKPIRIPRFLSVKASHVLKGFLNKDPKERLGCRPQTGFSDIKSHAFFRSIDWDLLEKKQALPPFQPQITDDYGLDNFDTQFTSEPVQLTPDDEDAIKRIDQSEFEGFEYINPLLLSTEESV
# Protocol: as §1, §2
# PKCγ = molecular target: T3, PKCγ (Homo sapiens, UniProt P05129); assay: EGFP-PKC isoform translocation in HeLa cells; assay type: cell-based
# T3 construct: host or cells: HeLa cells
# Protocol: as §1, §2
# PKCθ = molecular target: T4, PKCθ (Homo sapiens, UniProt Q04759); assay: EGFP-PKC isoform translocation in HeLa cells; assay type: cell-based; details: one hour, TPA 100 ng/mL, bryostatin-1 5 pg/mL, PEP003 2.25 μg/mL (5 μM), PEP005 670 μg/mL (1.5 μM)
# T4 construct: host or cells: HeLa cells
# T4 sequence (Q04759 whole entry, canonical isoform): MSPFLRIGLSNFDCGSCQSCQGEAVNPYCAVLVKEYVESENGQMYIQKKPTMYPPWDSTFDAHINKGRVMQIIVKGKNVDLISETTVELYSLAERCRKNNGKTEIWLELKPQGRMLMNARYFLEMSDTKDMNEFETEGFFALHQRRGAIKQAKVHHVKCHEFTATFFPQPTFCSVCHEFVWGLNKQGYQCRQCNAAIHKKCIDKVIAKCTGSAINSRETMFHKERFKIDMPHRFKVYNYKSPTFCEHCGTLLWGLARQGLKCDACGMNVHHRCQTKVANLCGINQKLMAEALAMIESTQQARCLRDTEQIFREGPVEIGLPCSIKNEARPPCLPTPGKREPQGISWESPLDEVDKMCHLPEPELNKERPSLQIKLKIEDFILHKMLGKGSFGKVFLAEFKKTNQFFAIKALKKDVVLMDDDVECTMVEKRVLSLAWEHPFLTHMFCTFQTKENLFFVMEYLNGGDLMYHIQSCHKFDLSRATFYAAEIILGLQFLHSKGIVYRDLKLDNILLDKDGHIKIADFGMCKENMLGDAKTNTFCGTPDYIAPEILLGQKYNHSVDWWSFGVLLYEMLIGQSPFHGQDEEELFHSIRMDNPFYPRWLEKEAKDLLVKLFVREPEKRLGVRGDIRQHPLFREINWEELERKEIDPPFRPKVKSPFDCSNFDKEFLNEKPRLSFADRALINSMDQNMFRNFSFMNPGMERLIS
# Protocol: as §1, §2
# PKCα = molecular target: T5, PKCα (Homo sapiens, UniProt P17252); assay type: cell-based; details: HeLa
# T5 construct: host or cells: HeLa cells
# Protocol: as §1
# as §2, with “counted.” for “counted. Results are presented as an average and standard deviation of percentages of cells (Table 1).”
# adenovirus 5 = assay: Adenovirus 5 replication in human melanoma cells; assay type: cell-based; details: 2 days
# Excerpt: Human melanoma cells were infected with ten-fold dilutions of adenovirus 5 in culture, treated with dilutions of PEP005, PEP006, PEP008 and PEP010 and adenovirus replication determined 2 days later by immunhistochemical detection of virus-replicating cells.
# [2] = test system: neonatal foreskin fibroblasts; assay: Leukocyte killing of normal cells, [3H]-thymidine labelling; assay type: cell-based, human; details: 100:1 effector:target, 48 hr
# Protocol: (§3) Leukocytes obtained by lysis of human peripheral blood were added to 5000 MM96L human melanoma cells or 7000 neonatal foreskin fibroblasts per microtitre well at effector: target ratios of 1000, 100 and 10:1. Ing9 (60 ng/mL) was added and after 48 hr incubation the cultures were washed and labelled with [3H]-thymidine for 2 hr. […] Untreated leukocytes had no effect on cell survival.
# as §3, with “The target cells had been treated with 60 ng/mL PEP008 for 20 hr beforehand,” for “Ing9 (60 ng/mL) was added”, “washed and the medium replaced before the leukocytes were added. After” for “after”, “incubation with the leukocytes” for “incubation”
# [3] = test system: MM96L human melanoma cells; assay: Leukocyte killing of tumor cells, [3H]-thymidine labelling; assay type: cell-based; details: 100:1 effector:target, 48 hr
# Protocol: as §3
# as §3, with “The target cells had been treated with 60 ng/mL PEP008 for 20 hr beforehand,” for “Ing9 (60 ng/mL) was added”, “washed and the medium replaced before the leukocytes were added. After” for “after”, “incubation with the leukocytes” for “incubation”
# [4] = test system: Peripheral blood mononuclear cells (PBMC); assay: Respiratory burst (H2O2) in PBMC, DCFH-DA flow cytometry; assay type: cell-based
# Protocol: Experiments were also carried out using 2′,7′-dichlorofluorescein diacetate (DCFH-DA) to measure the production of H2O2.(J P Robinson, Oxidative burst methods, in Handbook of Flow Cytometry Methods, Wiley-Liss Inc, pp147-149, 1993). H2O2 oxidizes the non-fluorescent probe (DCFH-DA) to a fluorescent probe that can then be detected by a flow cytometer. Peripheral blood mononuclear cells (PBMC) were extracted from a donor blood sample by lysis of heparinized blood and used in a suspension of 1×10^6/mL of phosphate buffer, pH 7.3. The cells were then incubated with DCFH-DA (1 μL/mL of 20 mM stock) for 15 minutes to allow it to be taken up and trapped by hydrolysis with cellular esterases. The cells were then stimulated by test compounds for 15 min at 37° C. Controls included in the experiment were unloaded control (cells with no DCFH-DA) and loaded control (cells with DCFH-DA, but no stimulation). These were used to monitor the non-specific oxidation of unstimulated cells. The cells were then analyzed on the flow cytometer (excitation at 488 nm, emission at 525±20 nm), gating each sample for individual cell populations-granulocytes, monocytes and lymphocytes (Table 3).
# [5] = test system: phorbol ester binding site of PKC; assay: [3H]-phorbol dibutyrate competition assay on rat brain homogenate
# Protocol: A competition assay was performed to determine whether the diterpene esters of the instant invention bind to the phorbol ester binding site of PKC. […] This binding was not blocked by co-incubation with bisindolylmaleimide.
# MM96L cells = assay: Effect of Euphorbiaceae saps on MM96L cells (cytotoxicity, bipolar dendritic phenotype); assay type: cell-based; details: 1 μg/mL or 10 μg/mL
# Protocol: Sap was collected from Synadenium grantii, Synadenium compactum, Mondenium lugardae, Mondenium guentheri, Endadenium gossweileni, and E. peplus and serially diluted ten-fold up to 10^−7into sterile 1.5 mL Eppendorf™ tubes using growth medium. […] After 3 days, cells were examined for cytotoxicity or differentiation to a bipolar dendritic phenotype.
# rat brain PKC = assay: PepTag non-radioactive PKC kinase activity assay; details: FIG. 1; TPA 100-0.01 ng/ml; ether extract final dilution 1 in 5; aqueous layer and crude sap diluted 1/25
# Protocol: The kinase activity of rat brain PKC (Promega) was determined using the Peptag™ Non-Radioactive Protein Kinase Kit (Promega). Using agarose gel electrophoresis the technique visualises the opposing electrostatic charge of a fluorescently labeled peptide ([sequence]) compared to the phosphorylated version of the same peptide.
# The reaction mixture was separated by gel electrophoresis, showing migration of the unreacted substrate (a) to the anode (top), and the product (b), which is more negatively charged because of phosphorylation by PKC, moving towards the cathode (bottom).
# [6] = target cells pre-treated with 60 ng/mL for 20 hr, washed
compound,measurement,setting,value
CC1=C[C@]23C(=O)[C@@H](C=C(CO)[C@@H](O)[C@]2(O)[C@H]1O)[C@H]1[C@@H](C[C@H]3C)C1(C)C [Ingenol],reduction of HIV-1 replication rate,HIV-strain pNL4-3,approximately 35%
"C/C=C(/C)C(=O)O[C@H]1C(C)=C[C@]23C(=O)[C@@H](C=C(CO)[C@@H](O)[C@]12O)[C@H]1[C@@H](C[C@H]3C)C1(C)C [PEP005, 20-hydroxy-ingenol-3-angelate]",stimulation of phagocytosis of fluorescent latex beads,[1],stimulate phagocytosis in PBMCs
same,number of PKCβ transfected cells with Golgi-like fluorescence,PKCβ,decreases the number of cells with PKCβ concentrated in the Golgi
same,translocation of PKCβ to the plasma membrane,PKCβ,translocated from the cytoplasm to the plasma membrane
same,translocation of PKCζ,PKCζ,fail to induce translocation
same,number of PKCγ transfected cells displaying Golgi-like fluorescence,PKCγ; one hour treatment,increase in the number of cells displaying Golgi-like fluorescence
same,translocation of PKCγ to the plasma membrane,"PKCγ; one hour, TPA 100 ng/mL, bryostatin-1 5 pg/mL, PEP003 2.25 μg/mL (5 μM), PEP005 670 μg/mL (1.5 μM)",translocated from the cytoplasm to the plasma membrane
same,translocation of PKCθ,PKCθ,does not induce any change
same,number of PKCα transfected cells displaying Golgi-like fluorescence,PKCα; one hour treatment,increase in the number of cells displaying Golgi-like fluorescence
same,translocation of PKCα to the plasma membrane,"PKCα; one hour, TPA 100 ng/mL, bryostatin-1 5 pg/mL, PEP003 2.25 μg/mL (5 μM)",translocated from the cytoplasm to the plasma membrane
same,increase of adenovirus replication (number of stained cells),adenovirus 5; 67 ng/mL,344%
"C/C=C(/C)C(=O)O[C@H]1C(C)=C[C@]23C(=O)[C@@H](C=C(CO)[C@@H](O)[C@]12O)[C@H]1[C@@H](C[C@H]3C)C1(C)C [PEP006, Ingenol-3-angelate]",stimulation of phagocytosis of fluorescent latex beads,[1],stimulate phagocytosis in PBMCs
same,increase of adenovirus replication (number of stained cells),adenovirus 5; 295 ng/mL,256%
"C/C=C(/C)C(=O)O[C@H]1C(C)=C[C@]23C(=O)[C@@H](C=C(COC(C)=O)[C@@H](O)[C@]12O)[C@H]1[C@@H](C[C@H]3C)C1(C)C [PEP008, 20-O-acetyl-ingenol-3-angelate]",survival of normal fibroblasts,[2]; 60 ng/mL added with leukocytes,100%
same,survival of normal fibroblasts,[2]; [6],100%
same,stimulation of phagocytosis of fluorescent latex beads,[1],stimulate phagocytosis in PBMCs
same,survival of melanoma cells,[3]; 60 ng/mL added with leukocytes,9%
same,survival of melanoma cells,[3]; [6],12%
same,increase of adenovirus replication (number of stained cells),adenovirus 5; 226 ng/mL,248%
CCC/C=C/C=C/C(=O)O[C@H]1/C(=C/C(=O)OC)C[C@H]2C[C@H]([C@@H](C)O)OC(=O)C[C@H](O)C[C@@H]3C[C@H](OC(C)=O)C(C)(C)[C@](O)(C[C@@H]4C/C(=C/C(=O)OC)C[C@H](/C=C/C(C)(C)[C@]1(O)O2)O4)O3 [bryostatin-1],"induction of a respiratory burst (H2O2, DCFH-DA)","[4]; 15 min at 37° C., granulocytes, monocytes, lymphocytes",All compounds except Bryostatin induced a respiratory burst
same,number of PKCβ transfected cells with Golgi-like fluorescence,PKCβ,decreases the number of cells with PKCβ concentrated in the Golgi
same,translocation of PKCβ to the plasma membrane,PKCβ,but not with bryostatin-1
same,translocation of PKCζ,PKCζ,fail to induce translocation
same,translocation of PKCθ,PKCθ,translocated
bisindolylmaleimide,binding to the phorbol ester binding site of PKC,[5],does not
same,effect of PKC inhibitor on sap-induced differentiation of MM96L cells,MM96L cells,this differentiation is inhibited
same,block of the respiratory burst by PKC inhibitor,"[4]; 10 μg/mL or 1 μg/mL, added at the same time as test compounds",blocked the respiratory burst
phosphatidyl serine,activation of PKC (phosphorylation of fluorescent PepTag substrate),rat brain PKC,strong activation
